Earlier results in patent US20110177042A1, “Method for Dedifferentiating Melanocytes” (priority 2008, published 2011).

Tested on: Notch1
Settings: identified in cited literature (Xiao 2009; Adler 2008; Stockhausen 2005)

SMILES | Notch1 activation
O=C(CCCCCCC(=O)NO)NO [suberoyl bis-hydroxamic acid] | strong Notch1 activators
CCCC(CCC)C(=O)O [valproic acid] | strong Notch1 activators
